Laboratory results published in US4732890A, “Retro-inverso hexapeptide neurotensin analogs, process for their preparation and pharmaceutical compositions containing them” (Eniricerche S.p.A., priority 1985, dated 1988).

How the values were obtained:
male rats = experiment: Blood pressure after i.v. injection in urethane-anesthetized male rats; type: in vivo, rat; settings: 20 meq/Kg; for Arterial pressure: i.v. right femoral vein, basal 80-130 mmHg; for Pressure Δ: i.v., versus basal 80-130 mmHg
Description: Typically, male rats weighing about 200-300 g, anesthetized with urethane (1.75 g/Kg i.p.), were employed in these tests and the hexapeptide [drawing 9] was administered by i.v. injection in the right femoral vein at a dosage of 20 meq/Kg body weight.
Blood pressure was recorded at different times following the injection.
The basal values were on the average 80-130 mmHg.

[1] = cited from earlier work

Arginyl-arginyl-prolyl-tyrosyl-gem diamino-isoleucyl-(R,S)malonyl-leucine [Example 1]
Arterial pressure (male rats; 30' from admin.): 80-125 mmHg
Pressure Δ (male rats; 30' from admin.): 0-5
Arterial pressure (male rats; 1 h from admin.): 75-125 mmHg
Pressure Δ (male rats; 1 h from admin.): 5-5
Arterial pressure (male rats; 2 h from admin.): 75-125 mmHg
Pressure Δ (male rats; 2 h from admin.): 5-5
Arterial pressure (male rats; 2.5 h from admin.): 75-120 mmHg
Pressure Δ (male rats; 2.5 h from admin.): 5-10
Arterial pressure (male rats; 3.5 h from admin.): 75-120 mmHg
Pressure Δ (male rats; 3.5 h from admin.): 5-10
Arterial pressure (male rats; 4.5 h from admin.): 70-110 mmHg
Pressure Δ (male rats; 4.5 h from admin.): 10-20
Arterial pressure (male rats; 5 h from admin.): 70-110 mmHg
Pressure Δ (male rats; 5 h from admin.): 10-20
Arterial pressure (male rats; 6 h from admin.): 65-105 mmHg
Pressure Δ (male rats; 6 h from admin.): 15-25

Arg-Arg-Pro-Tyr-Ile-Leu (RRPYIL; printed: Arg-Arg-Pro-Tyr-Ile-Leu) [C-terminal hexapeptide, C-terminal hexapeptide fragment of NT]
in vivo biological activity relative to NT [1]: much lower than NT itself
